Tests used:
Assay type in all cases: cell-based
human TLR8 = target: T1, human TLR8 (Homo sapiens, UniProt Q9NR97); test: TLR8 inhibition reporter assay (HEK-Blue cells, SEAP reporter, R848 stimulation); details: HEK-Blue cells overexpressing human TLR8, SEAP reporter, R848 15.9 μM
T1 construct: host or cells: HEK-Blue cells
T1 sequence (Q9NR97 27-1041): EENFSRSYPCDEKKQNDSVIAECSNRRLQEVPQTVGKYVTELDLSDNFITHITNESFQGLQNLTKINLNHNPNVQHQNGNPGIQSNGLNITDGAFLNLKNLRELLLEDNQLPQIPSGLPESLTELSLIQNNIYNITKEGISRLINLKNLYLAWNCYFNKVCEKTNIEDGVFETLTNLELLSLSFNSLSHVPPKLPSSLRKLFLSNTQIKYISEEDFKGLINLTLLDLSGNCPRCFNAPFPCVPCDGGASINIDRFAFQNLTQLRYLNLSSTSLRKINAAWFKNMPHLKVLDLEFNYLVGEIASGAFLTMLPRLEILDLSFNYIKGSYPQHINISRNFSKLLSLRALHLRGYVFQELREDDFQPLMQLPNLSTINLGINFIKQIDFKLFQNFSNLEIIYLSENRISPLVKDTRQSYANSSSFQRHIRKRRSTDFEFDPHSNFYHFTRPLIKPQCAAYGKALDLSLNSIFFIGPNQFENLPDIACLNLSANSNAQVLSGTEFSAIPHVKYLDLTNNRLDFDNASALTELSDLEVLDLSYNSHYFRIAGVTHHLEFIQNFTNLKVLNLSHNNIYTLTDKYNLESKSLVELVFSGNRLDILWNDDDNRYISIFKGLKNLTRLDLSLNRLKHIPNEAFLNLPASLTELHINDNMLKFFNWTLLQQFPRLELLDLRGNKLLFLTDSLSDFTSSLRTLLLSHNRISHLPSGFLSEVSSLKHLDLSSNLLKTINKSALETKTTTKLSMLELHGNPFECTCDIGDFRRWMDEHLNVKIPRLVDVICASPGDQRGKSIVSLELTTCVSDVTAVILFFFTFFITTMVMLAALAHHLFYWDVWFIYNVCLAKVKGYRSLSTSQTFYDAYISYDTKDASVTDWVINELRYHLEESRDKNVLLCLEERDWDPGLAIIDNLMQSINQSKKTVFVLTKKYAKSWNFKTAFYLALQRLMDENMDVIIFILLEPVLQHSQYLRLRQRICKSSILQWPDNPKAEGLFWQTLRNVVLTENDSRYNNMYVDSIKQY
In short: (§1)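 Cells were pre-treated 30 min at room temperature with compound (final 0.05 nM–50 μM), then stimulated with gardiquimod 7.5 μM (TLR7), R848 15.9 μM (TLR8) or ODN2006 5 nM (TLR9). SEAP was read after 22 h at 37° C; percent inhibition scaled between agonist+DMSO and known-inhibitor wells.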

human TLR7 = target: T2, human TLR7 (Homo sapiens, UniProt Q9NYK1); test: TLR7 inhibition reporter assay (HEK-Blue cells, SEAP reporter, gardiquimod stimulation); details: HEK-Blue cells overexpressing human TLR7, SEAP reporter, gardiquimod 7.5 μM
T2 construct: host or cells: HEK-Blue cells
T2 sequence (Q9NYK1 27-1049): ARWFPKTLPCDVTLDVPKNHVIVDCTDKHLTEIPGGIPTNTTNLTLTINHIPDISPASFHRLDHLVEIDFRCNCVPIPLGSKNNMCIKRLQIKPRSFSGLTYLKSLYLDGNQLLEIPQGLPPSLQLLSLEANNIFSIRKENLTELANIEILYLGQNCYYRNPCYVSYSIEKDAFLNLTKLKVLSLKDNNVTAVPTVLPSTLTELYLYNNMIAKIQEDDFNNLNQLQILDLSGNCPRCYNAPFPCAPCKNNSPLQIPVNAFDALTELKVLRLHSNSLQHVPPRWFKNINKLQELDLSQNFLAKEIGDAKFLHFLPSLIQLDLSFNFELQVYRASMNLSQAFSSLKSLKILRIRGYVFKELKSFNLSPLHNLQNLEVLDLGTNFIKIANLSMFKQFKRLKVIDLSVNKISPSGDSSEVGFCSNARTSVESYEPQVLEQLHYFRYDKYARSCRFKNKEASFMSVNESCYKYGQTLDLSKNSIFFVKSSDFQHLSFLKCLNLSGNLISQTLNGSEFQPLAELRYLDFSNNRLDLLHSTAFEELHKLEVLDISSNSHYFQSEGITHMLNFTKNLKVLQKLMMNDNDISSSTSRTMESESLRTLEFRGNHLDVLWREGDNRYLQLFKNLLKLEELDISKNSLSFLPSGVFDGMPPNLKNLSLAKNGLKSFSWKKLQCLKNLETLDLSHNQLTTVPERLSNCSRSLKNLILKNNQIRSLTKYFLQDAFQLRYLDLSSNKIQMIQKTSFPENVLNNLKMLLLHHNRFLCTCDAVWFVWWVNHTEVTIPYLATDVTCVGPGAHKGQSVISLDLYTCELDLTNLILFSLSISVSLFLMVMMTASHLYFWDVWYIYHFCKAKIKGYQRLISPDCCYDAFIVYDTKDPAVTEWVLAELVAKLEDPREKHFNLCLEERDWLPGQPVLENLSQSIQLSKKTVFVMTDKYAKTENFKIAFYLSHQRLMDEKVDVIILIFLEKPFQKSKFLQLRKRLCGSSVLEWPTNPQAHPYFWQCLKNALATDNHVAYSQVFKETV
In short: as §1

human TLR9 = target: T3, human TLR9 (Homo sapiens, UniProt Q9NR96); test: TLR9 inhibition reporter assay (HEK-Blue cells, SEAP reporter, ODN2006 stimulation); details: HEK-Blue cells overexpressing human TLR9, SEAP reporter, ODN2006 5 nM
T3 construct: host or cells: HEK-Blue cells
T3 sequence (Q9NR96 26-1032): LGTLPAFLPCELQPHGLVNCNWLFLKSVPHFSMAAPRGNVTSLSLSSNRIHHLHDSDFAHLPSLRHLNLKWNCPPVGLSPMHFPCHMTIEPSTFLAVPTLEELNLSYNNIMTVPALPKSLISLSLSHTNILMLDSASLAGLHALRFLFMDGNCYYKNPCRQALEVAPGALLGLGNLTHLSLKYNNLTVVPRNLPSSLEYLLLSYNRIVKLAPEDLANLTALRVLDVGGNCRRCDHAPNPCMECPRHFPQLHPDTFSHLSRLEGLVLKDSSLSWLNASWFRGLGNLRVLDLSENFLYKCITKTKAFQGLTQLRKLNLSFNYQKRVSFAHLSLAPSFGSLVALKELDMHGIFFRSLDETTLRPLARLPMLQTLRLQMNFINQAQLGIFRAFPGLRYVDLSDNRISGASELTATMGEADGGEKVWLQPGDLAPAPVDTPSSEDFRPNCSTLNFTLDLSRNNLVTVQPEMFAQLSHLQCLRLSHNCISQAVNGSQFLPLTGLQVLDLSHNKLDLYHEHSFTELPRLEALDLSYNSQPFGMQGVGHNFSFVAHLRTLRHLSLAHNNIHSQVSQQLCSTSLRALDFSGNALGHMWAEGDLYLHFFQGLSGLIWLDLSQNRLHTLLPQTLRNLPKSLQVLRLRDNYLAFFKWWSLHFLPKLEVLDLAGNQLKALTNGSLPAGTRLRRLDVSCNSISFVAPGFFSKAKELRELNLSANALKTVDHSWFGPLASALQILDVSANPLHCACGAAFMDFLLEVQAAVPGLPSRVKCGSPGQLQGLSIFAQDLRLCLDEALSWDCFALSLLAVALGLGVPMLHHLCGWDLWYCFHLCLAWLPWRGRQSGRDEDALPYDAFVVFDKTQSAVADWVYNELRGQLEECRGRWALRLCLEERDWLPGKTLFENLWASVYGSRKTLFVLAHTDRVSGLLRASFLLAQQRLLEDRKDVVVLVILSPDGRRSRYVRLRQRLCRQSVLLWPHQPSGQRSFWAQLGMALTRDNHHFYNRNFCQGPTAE
In short: as §1

Row | Compound | IC50 (human TLR8) [nM] | IC50 (human TLR7) [nM] | IC50 (human TLR9) [nM]
1 | CCN1CC(C(=O)N(C)C2CCC(c3n[nH]c(-c4cc(C)c5ncnn5c4)c3C(C)C)CC2)C1 (single isomer, unassigned) [Example 305] | 70 | 311 | > 50000
2 | CCC(CC)N[C@H]1CC[C@@H](NC(=O)c2n[nH]c(-c3cc(C)c4ncnn4c3)c2C(C)C)CC1 [Example 100] | 114 | 78.9 | 6400
3 | COc1cc(-c2[nH]nc(-c3cnc(C4CCN(CCS(C)(=O)=O)CC4)cn3)c2C(C)C)cn2ncnc12 [Example 397] | 463 | 221 | > 50000
4 | Cc1cc(-c2[nH]nc(C(=O)NC3CCC(NCC(C)(C)C)CC3)c2C(C)C)cn2ncnc12 (stereo not drawn) [Example 131] | 32.6 | 7.48 | 10900
5 | Cc1cc(-c2[nH]nc(C(=O)NC3CCN(CC(=O)N(C)C)CC3)c2C(C)C)cn2ncnc12 [Example 176, N-(1-(2-(dimethylamino)-2-oxoethyl)piperidin-4-yl)-4-isopropyl-5-(8-methyl-[1,2,4]triazolo [1,5-a]pyridin-6-yl)-1H-pyrazole-3-carboxamide] | 23.7 | 23.3 | 9580
6 | Cc1cc(-c2[nH]nc(C(=O)NC3CCN(C(C)C)CC3)c2C(C)C)ccn1 [Example 38] | 4.43 | 7.93 | 2280
7 | Cc1cc(-c2[nH]nc(C(=O)NCC3CN(CC(C)(C)C)CCO3)c2C(C)C)cn2ncnc12 (stereo not drawn) [Example 144] | 3.56 | 7.26 | 15200
8 | Cc1cc(-c2[nH]nc(C(=O)NC3CCC(NC4(C)COC4)CC3)c2C(C)C)cn2ncnc12 (stereo not drawn) [Example 123] | 16.8 | 5.09 | 6290
9 | COc1cc(-c2[nH]nc(C(=O)NC3CCN(C4CCN(C(C)C)CC4)CC3)c2CC(F)(F)F)cn2ncnc12 [Example 199] | 2.19 | 4.98 | 2950
10 | Cc1cc(-c2[nH]nc(C(=O)N3CCN(CCC#N)CC3)c2C(C)C)cn2ncnc12 [Example 19] | 12 | 1.4 | 5940

Second part, the compound after the results:

Row | IC50 (human TLR8) [nM] | IC50 (human TLR7) [nM] | IC50 (human TLR9) [nM] | Compound
11 | 1.94 | 0.96 | 4560 | Cc1cc(-c2[nH]nc(-c3ccc4c(c3)CCN(CC(=O)N(C)C)C4)c2C(C)C)cn2ncnc12 [Example 271, 2-(6-(4-isopropyl-5-(8-methyl-[1,2,4]triazolo[1,5-a]pyridin-6-yl)-1H-pyrazol-3-yl)-3,4-dihydroisoquinolin-2(1H)-yl)-N,N-dimethylacetamide]
12 | 65.1 | 41.1 | > 50000 | Cc1cc(-c2[nH]nc(-c3ccc4c(c3)CCN(C(=O)CN(C)C)C4)c2C(C)C)cn2ncnc12 [Example 268, 2-(dimethylamino)-1-(6-(4-isopropyl-5-(8-methyl-[1,2,4]triazolo[1,5-a]pyridin-6-yl)-1H-pyrazol-3-yl)-3,4-dihydroisoquinolin-2(1H)-yl)ethan-1-one]
13 | 118 | 102 | > 50000 | COc1cc(-c2[nH]nc(-c3ccc(C4CCN(CC(C)(C)O)CC4)cn3)c2C(C)C)cn2ncnc12 [Example 391]
14 | 17.8 | 5.42 | > 50000 | COc1cc(-c2[nH]nc(-c3ccc(C4CCN(CC5(C)COC5)CC4)cc3)c2C(C)C)cn2ncnc12 [Example 312]
15 | 3.38 | 7.42 | 23000 | CNCc1n[nH]c(-c2cc(C)c3ncnn3c2)c1C(C)C [Example 185]
16 | 12.9 | 12.6 | 2250 | Cc1cc(-c2[nH]nc(C(=O)NC3CCCNC3)c2C(C)C)cn2ncnc12 (stereo not drawn) [Example 67]
17 | 11.4 | 4.43 | 18200 | Cc1cc(-c2[nH]nc(-c3ccc(N)nc3)c2C(C)C)cn2ncnc12 [Example 227]
18 | 0.31 | 2.92 | 20700 | Cc1cc(-c2[nH]nc(C3CCN(C(C)C)CC3)c2C(C)C)cn2ncnc12 [compound 207]
19 | 4.78 | 8.79 | 6870 | Cc1cc(-c2[nH]nc(C(=O)NC3CN(Cc4ncn(C)n4)C3)c2C(C)C)cn2ncnc12 [Example 159]
20 | 8.4 | 19.9 | 35600 | COc1cc(-c2[nH]nc(-c3ccc(C4CCN(CC5CCOCC5)CC4)cn3)c2C(C)C)cn2ncnc12 [Example 375]
21 | 18.7 | 1.36 | 25400 | Cc1cc(-c2[nH]nc(-c3cnc(N(C)C)cn3)c2C(C)C)cn2ncnc12 [Example 236]
22 | 3.86 | 22.4 | > 50000 | Cc1cc(-c2[nH]nc(-c3ccc(C4CCN(C(=O)CN(C)C)CC4)cc3)c2C(C)C)cn2ncnc12 [Example 323, 2-(dimethylamino)-1-(4-(4-(4-isopropyl-5-(8-methyl-[1,2,4]triazolo[1,5-a]pyridin-6-yl)-1H-pyrazol-3-yl)phenyl)piperidin-1-yl)ethan-1-one]
